IC50 and Ki data for 34 compounds are collected here from ChEMBL document CHEMBL5608165, “Opportunities and perspectives of small molecular phosphodiesterase inhibitors in neurodegenerative diseases” (Eur J Med Chem, 2024).

Assay [1] is described as follows: Inhibition of PDE1 (unknown origin). Set-up: species or system Homo sapiens.
Assay [2] has as its target T1, High affinity cGMP-specific 3',5'-cyclic phosphodiesterase 9A (Homo sapiens, UniProt O76083). As to the kind of experiment: Inhibition of PDE9A (unknown origin).
The next assay deals with Acetylcholinesterase (Homo sapiens, UniProt P22303). The assay is described as follows: Inhibition of AChE (unknown origin) using acetylthiocholine iodide as substrate by Ellman's method. Background: Ellman's reagent forms a yellow product with free thiols.
Sequence of Acetylcholinesterase (P22303 whole entry): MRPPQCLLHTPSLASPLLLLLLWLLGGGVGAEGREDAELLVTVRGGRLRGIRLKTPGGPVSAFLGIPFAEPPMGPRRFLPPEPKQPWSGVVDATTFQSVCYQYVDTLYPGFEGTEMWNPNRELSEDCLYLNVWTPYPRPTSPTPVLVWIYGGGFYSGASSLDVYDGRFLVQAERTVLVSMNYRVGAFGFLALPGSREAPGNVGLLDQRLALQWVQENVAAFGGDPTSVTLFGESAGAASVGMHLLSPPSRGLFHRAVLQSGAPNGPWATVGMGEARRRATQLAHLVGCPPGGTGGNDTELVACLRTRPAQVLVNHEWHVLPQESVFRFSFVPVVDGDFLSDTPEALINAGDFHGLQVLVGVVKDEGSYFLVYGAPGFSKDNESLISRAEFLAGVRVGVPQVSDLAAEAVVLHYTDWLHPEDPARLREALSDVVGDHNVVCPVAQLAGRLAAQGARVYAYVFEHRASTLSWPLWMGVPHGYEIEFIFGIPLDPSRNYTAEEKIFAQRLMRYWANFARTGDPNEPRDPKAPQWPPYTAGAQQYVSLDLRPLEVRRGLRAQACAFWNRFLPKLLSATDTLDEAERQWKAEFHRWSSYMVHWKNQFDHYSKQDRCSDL
Assay [3] concerns the target T2, cGMP-specific 3',5'-cyclic phosphodiesterase (Homo sapiens, UniProt O76074). The assay is described as follows: Inhibition of PDE5A (unknown origin).
The target in assay [4] is cGMP-inhibited 3',5'-cyclic phosphodiesterase 3B (Homo sapiens, UniProt Q13370). The assay is described as follows: Inhibition of human recombinant PDE3B using FAM-cyclic-3',5'-AMP as substrate incubated for 1 hrs by fluorescence polarization based assay.
For assay [5], the target named is cGMP-inhibited 3',5'-cyclic phosphodiesterase 3A (Homo sapiens, UniProt Q14432). The assay is described as follows: Inhibition of PDE3A (unknown origin) using FAM-cAMP as substrate incubated for 45 mins by TR-FRET analysis.
The next assay addresses Phosphodiesterase 4 (Homo sapiens, UniProt P27815+Q08499+Q07343+Q08493). As to the kind of experiment: Inhibition of PDE4 (unknown origin). It is filed as protein assay.
The target in assay [6] is 3',5'-cyclic-AMP phosphodiesterase 4B (Homo sapiens, UniProt Q07343). The assay is described as follows: Inhibition of human recombinant PDE4B1 using […] as substrate preincubated with compound for 15 mins followed by substrate addition and measured after 30 mins by spectrofluorimetric analysis.
Sequence of 3',5'-cyclic-AMP phosphodiesterase 4B (Q07343 whole entry): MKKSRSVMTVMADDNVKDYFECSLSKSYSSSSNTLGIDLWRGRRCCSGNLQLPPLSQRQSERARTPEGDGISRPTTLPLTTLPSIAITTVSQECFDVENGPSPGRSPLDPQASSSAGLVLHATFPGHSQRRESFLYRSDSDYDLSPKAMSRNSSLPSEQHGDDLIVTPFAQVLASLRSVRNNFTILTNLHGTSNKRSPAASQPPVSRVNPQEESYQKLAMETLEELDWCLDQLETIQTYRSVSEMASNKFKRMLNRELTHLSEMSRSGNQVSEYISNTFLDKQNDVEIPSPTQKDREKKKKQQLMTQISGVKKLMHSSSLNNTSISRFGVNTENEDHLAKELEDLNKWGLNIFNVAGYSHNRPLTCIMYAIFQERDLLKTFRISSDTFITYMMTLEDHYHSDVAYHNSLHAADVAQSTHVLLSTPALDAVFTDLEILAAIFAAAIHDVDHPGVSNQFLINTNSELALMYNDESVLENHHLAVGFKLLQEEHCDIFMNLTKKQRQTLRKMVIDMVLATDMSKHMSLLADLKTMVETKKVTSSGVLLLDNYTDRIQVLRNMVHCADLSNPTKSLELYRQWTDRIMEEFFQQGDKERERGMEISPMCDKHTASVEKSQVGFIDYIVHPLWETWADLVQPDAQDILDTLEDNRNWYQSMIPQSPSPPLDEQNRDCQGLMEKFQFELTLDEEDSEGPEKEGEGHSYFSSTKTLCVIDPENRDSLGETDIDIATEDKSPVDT
A further assay has as its target Histone deacetylase 1 (Homo sapiens, UniProt Q13547). As to the kind of experiment: Inhibition of HDAC1 (unknown origin).
The target in assay [7] is High affinity 3',5'-cyclic-AMP phosphodiesterase 7A (Homo sapiens, UniProt Q13946). As to the kind of experiment: Inhibition of PDE7A (unknown origin).
Sequence of High affinity 3',5'-cyclic-AMP phosphodiesterase 7A (Q13946 whole entry): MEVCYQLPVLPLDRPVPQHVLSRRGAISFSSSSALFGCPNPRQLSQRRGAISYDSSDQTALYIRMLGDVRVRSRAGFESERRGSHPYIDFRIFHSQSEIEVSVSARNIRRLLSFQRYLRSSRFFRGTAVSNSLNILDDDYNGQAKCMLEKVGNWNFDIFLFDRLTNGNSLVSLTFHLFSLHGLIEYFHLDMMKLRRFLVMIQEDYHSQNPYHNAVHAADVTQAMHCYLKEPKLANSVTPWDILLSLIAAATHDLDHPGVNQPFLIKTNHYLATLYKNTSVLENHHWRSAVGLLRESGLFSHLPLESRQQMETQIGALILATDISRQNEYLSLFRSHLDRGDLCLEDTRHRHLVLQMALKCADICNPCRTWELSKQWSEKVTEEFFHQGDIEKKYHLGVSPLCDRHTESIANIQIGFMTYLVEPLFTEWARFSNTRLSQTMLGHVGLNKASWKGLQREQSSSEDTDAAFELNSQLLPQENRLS
Assay [8] has as its target Glycogen synthase kinase-3 alpha (Homo sapiens, UniProt P49840). The assay is described as follows: Inhibition of GSK3alpha (unknown origin).
Assay [9] deals with cGMP-dependent 3',5'-cyclic phosphodiesterase (Homo sapiens, UniProt O00408). The assay is described as follows: Inhibition of PDE2A (unknown origin) using 3H-cGMP as substrate.
Sequence of cGMP-dependent 3',5'-cyclic phosphodiesterase (O00408 whole entry): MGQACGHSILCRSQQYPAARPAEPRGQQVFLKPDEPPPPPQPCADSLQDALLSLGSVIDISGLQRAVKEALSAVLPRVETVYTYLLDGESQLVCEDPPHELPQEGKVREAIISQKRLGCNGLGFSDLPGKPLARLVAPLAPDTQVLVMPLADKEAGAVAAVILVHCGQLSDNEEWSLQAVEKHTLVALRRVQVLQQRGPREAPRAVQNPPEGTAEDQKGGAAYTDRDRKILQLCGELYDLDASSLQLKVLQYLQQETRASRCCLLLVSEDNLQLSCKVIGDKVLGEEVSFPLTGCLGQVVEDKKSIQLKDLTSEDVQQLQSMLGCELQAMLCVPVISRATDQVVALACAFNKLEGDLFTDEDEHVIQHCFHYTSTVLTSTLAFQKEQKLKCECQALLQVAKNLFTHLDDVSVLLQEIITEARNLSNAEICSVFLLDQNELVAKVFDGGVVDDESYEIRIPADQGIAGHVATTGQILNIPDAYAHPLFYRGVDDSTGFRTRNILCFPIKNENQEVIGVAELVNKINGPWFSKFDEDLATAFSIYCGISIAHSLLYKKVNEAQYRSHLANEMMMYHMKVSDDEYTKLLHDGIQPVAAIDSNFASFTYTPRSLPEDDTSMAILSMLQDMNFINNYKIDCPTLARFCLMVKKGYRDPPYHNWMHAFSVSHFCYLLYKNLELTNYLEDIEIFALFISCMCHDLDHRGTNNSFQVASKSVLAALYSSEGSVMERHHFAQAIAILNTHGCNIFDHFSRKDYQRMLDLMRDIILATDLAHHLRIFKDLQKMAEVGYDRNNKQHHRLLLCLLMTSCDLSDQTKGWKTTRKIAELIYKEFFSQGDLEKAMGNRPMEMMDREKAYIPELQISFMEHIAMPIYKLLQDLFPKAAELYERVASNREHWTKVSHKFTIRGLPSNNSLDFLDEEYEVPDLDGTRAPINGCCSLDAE
Assay [10] deals with 3',5'-cyclic-AMP phosphodiesterase 7B (Homo sapiens, UniProt Q9NP56). The assay is described as follows: Inhibition of PDE7B (unknown origin).
The target of assay [11] is Dual specificity calcium/calmodulin-dependent 3',5'-cyclic nucleotide phosphodiesterase 1A (Homo sapiens, UniProt P54750). As to the kind of experiment: Inhibition of human recombinant GST-tagged PDE1A.
Assay [12] has as its target Dual specificity calcium/calmodulin-dependent 3',5'-cyclic nucleotide phosphodiesterase 1B (Homo sapiens, UniProt Q01064). As to the kind of experiment: Inhibition of PDE1B (unknown origin).
For assay [13], the target named is Dual specificity calcium/calmodulin-dependent 3',5'-cyclic nucleotide phosphodiesterase 1C (Homo sapiens, UniProt Q14123). As to the kind of experiment: Inhibition of PDE1C (unknown origin).
Sequence of Dual specificity calcium/calmodulin-dependent 3',5'-cyclic nucleotide phosphodiesterase 1C (Q14123 whole entry): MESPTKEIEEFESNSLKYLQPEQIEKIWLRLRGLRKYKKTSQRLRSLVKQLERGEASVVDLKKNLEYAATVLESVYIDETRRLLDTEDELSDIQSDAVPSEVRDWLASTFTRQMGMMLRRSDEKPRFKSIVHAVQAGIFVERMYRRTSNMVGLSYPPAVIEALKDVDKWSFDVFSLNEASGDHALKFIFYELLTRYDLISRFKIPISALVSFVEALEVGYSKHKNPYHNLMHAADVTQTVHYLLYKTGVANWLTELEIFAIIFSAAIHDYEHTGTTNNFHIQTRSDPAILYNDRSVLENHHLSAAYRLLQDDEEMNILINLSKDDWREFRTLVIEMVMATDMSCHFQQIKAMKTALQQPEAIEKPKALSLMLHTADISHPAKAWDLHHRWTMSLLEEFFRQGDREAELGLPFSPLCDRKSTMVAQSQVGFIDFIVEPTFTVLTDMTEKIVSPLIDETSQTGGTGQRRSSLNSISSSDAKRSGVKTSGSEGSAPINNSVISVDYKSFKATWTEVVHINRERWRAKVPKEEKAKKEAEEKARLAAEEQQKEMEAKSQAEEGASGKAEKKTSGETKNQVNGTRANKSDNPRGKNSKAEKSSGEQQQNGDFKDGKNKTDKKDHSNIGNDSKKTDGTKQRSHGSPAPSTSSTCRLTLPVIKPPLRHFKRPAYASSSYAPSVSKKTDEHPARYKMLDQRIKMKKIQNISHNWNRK
Assay [14] concerns the target T3, cAMP and cAMP-inhibited cGMP 3',5'-cyclic phosphodiesterase 10A (Homo sapiens, UniProt Q9Y233). The assay is described as follows: Inhibition of PDE10A (unknown origin).
Assay [15] has as its target T2, cGMP-specific 3',5'-cyclic phosphodiesterase. As to the kind of experiment: Inhibition of PDE5A1 (unknown origin) using [3H]-cGMP substrate incubated for 15 mins by liquid scintillation counting method.
For assay [16], the target named is T1, High affinity cGMP-specific 3',5'-cyclic phosphodiesterase 9A. As to the kind of experiment: Binding affinity to PDE9A (unknown origin) using [3H]cAMP as substrate assessed as inhibition constant incubated for 1 hr by […].
For assay [17], the target named is T3, cAMP and cAMP-inhibited cGMP 3',5'-cyclic phosphodiesterase 10A. The assay is described as follows: Inhibition of his-tagged recombinant human PDE10A catalytic domain extracted from Escherichia coli BL21(DE3) using [3H]-cAMP as substrate incubated for 10 mins by SPA assay.

Each structure is given as a SMILES string.

For orientation: IC50 means the concentration needed to halve the response being measured. As usually defined, the Ki is a measure of affinity in units of concentration, obtained from inhibition or displacement.

T1 sequence (O76083 whole entry): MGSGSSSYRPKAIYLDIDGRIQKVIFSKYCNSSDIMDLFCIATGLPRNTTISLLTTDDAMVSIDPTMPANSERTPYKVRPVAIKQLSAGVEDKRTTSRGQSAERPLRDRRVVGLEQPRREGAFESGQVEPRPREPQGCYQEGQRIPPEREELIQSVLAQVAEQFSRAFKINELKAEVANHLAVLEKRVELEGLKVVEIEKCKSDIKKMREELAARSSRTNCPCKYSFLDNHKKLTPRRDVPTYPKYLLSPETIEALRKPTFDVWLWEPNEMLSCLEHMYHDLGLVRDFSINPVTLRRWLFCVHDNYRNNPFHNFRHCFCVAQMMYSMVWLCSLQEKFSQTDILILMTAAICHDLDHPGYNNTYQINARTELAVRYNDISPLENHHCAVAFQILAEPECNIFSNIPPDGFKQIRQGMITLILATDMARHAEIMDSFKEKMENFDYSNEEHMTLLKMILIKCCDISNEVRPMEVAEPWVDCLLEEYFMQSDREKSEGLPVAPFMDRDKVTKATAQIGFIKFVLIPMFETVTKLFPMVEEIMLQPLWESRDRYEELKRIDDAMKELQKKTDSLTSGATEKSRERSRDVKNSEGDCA
Sequence of Dual specificity calcium/calmodulin-dependent 3',5'-cyclic nucleotide phosphodiesterase 1B (Q01064 whole entry): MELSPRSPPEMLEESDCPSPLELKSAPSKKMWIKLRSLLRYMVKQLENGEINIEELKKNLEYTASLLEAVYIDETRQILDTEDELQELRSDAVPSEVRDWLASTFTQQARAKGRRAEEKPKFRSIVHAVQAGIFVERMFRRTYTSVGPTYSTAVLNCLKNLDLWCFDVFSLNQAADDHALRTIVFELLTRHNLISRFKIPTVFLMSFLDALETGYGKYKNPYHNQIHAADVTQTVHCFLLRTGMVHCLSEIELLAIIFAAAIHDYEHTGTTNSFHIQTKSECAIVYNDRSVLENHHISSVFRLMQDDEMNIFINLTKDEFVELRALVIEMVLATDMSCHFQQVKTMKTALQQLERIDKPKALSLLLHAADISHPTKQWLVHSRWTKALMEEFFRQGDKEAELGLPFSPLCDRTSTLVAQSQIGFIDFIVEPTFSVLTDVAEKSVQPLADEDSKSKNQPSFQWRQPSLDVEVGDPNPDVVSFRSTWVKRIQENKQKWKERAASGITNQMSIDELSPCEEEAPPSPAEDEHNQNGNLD

For `CN1C(=O)c2c(nn(Cc3ccc(-c4cccc(F)n4)cc3)c2Nc2ccccc2)N2C1=N[C@@H]1CCC[C@@H]12` [LENRISPODUN], it took 0.05 µM to reach half-maximal inhibition in [1] (IC50).

As for `Cn1c(=O)c2[nH]cnc2n(C)c1=O` [THEOPHYLLINE ANHYDROUS], in assay [1], the IC50 was found to be 0.28 µM. Take `O=C1NC(=O)/C(=C/c2ccc(OCCNc3nc4c(cnn4C4CCCC4)c(=O)[nH]3)c(F)c2)S1`: 0.0011 µM corresponded to half-maximal inhibition in assay [2] (IC50). Same read-out and setting: to `CC(C)=CCc1c2c(c3occ(-c4ccc(OS(C)(=O)=O)c(OS(C)(=O)=O)c4)c(=O)c3c1O)CCC(C)(C)O2` belongs 0.0053 µM; to `CCCCn1c(=O)n(CC)c(=O)c2[nH]c(-c3cccc(C(C)C)c3)cc21`, 38 µM. Regarding `CCOC(=O)C1=C[C@]2(CC)CCCN3CCc4c(n1c1ccccc41)[C@@H]32` [VINPOCETINE], the IC50 in [1] was 30 µM. With `COc1ccc([C@@H]2c3[nH]c4ccccc4c3C[C@H]3C(=O)N(CCC4CCN(Cc5ccccc5)CC4)CC(=O)N23)cc1`, the values for the IC50 (on Acetylcholinesterase; in assay [3]) were 3.2 µM and 0.0032 µM, respectively. Turning to `O=C1CCc2cc(OCCCCc3nnnn3C3CCCCC3)ccc2N1` [CILOSTAZOL], the IC50 in assay [4] was 0.05 µM; in assay [5], 0.027 µM. In the case of `O=C(Nc1ccccc1Cl)c1ccc(OC(F)F)c(OC2CCCC2)c1`, the values for the IC50 (against Phosphodiesterase 4; in assay [6]) were 0.03 µM and 0.095 µM, respectively. On to `CN1CC(=O)N2[C@H](c3ccc4c(c3)OCO4)c3[nH]c4ccccc4c3C[C@@H]2C1=O`, for which, at Acetylcholinesterase, the IC50 stood at […]. With `CCCc1nc(C)c2c(=O)[nH]c(-c3cc(CC4CC(C(=O)NO)C4)ccc3OCC)nn12` (stereo unspecified), 0.208 µM corresponded to half-maximal inhibition against Histone deacetylase 1 (IC50). For the compound `c1ccc(-c2n/c(=N/CCN3CCOCC3)sn2-c2ccccc2)cc1`, the IC50 in assay [7] turned out to be 1.59 µM; in assay [8], 0.88 µM. Compound `COc1ccc(/C(CSc2nc3ccccc3c(=O)n2-c2ccccc2)=N\N)cc1` returned an IC50 in assay [7] of 1.15 µM.

As for `O=C1[C@@H]2Cc3c([nH]c4ccccc34)[C@@H](c3ccc4c(c3)OCO4)N2C(=O)CN1CCC1CCN(Cc2ccccc2)CC1`, the IC50 against Acetylcholinesterase amounted to 1.63 µM; in [3] it was 0.00163 µM. In turn, `CC(c1cccc2ccccc12)n1cnc2c(=O)[nH]c(Cc3ccccc3)nc21` (stereo unspecified) displayed an IC50 in assay [9] of 0.57 µM.

On to `O=C1[C@H]2Cc3c([nH]c4ccccc34)[C@@H](c3ccc4c(c3)OCO4)N2C(=O)CN1CCC1CCN(Cc2ccccc2)CC1`, for which the IC50 against Acetylcholinesterase was 0.15 µM; in assay [3] it was 0.00015 µM. In assay [1], `CC(C)(C)n1ncc2c(=O)n(Cc3cccc(F)c3)c(NCc3ccc(F)cn3)nc21` returned an IC50 of 0.04 µM. For the compound `COc1ccc(CNc2c(COCCF)cnc3c(C4CC4)cc(C#N)cc23)cc1Cl`, in assay [3], the IC50 stood at 0.008 µM.

As for `O=C(Nc1ccccc1Cl)c1ccc(OC(F)F)c(OCC2CC2)c1`, the IC50 on Phosphodiesterase 4 stood at 0.09 µM; in assay [6] it was 0.144 µM. Consider `C=CCn1cc(-c2nc3ccccc3nc2Cl)c2cc(OC)ccc21`, for which the IC50 in assay [6] is 0.0106 µM. For `Cc1ccc([N+](=O)[O-])cc1S(=O)(=O)N(C)C`, the IC50 in assay [10] was found to be 12.1 µM; in assay [7], 0.15 µM. The compound `CC(C)CCn1c2c(c3c(O)cc(O)cc31)CCn1c-2nc2ccccc2c1=O` had an IC50 in [3] of 0.036 µM. As for `COc1ccc2c(N(C)[C@]3(C)CCO[C@H]3C)ncnc2c1OC`, the IC50 in assay [11] was found to be 0.0575 µM; in assay [12], 0.0138 µM; in assay [13], 0.0468 µM. In assay [2], `C[C@@H]1CC(Cc2ccc(C(=O)NO)cc2)C[C@H]1c1nc2c(cnn2C2CCCC2)c(=O)[nH]1` (stereo partly specified) had an IC50 of 0.107 µM. On to `CCCc1nn(C)c2c(=O)[nH]c(-c3cc(Cc4ccc(C(=O)Nc5ccccc5N)cc4)ccc3OCC)nc12`, for which, on Histone deacetylase 1, the IC50 was 0.18 µM. For `COc1cc2ncnc(NCCc3c[nH]c4ccc(O)cc34)c2cc1OC`, the IC50 in assay [14] is 0.00064 µM.

The compound `C[C@@H](NC(=O)/C=C/c1cccc(O)c1)c1nc2c(cnn2C2CCCC2)c(=O)[nH]1` showed an IC50 in assay [2] of 0.058 µM. Consider `O=C(NCCc1ccccc1)c1cnn2c(=O)cc(-c3ccccc3)[nH]c12`, for which, in [9], 0.0019 µM corresponded to half-maximal inhibition (IC50). The compound `COc1cc2c(cc1OC)C(=O)C(CC1CCN(Cc3ccccc3)CC1)C2` (stereo unspecified) [DONEPEZIL] yielded an IC50 in assay [15] of 0.011 µM.

Turning to `COC[C@H]1CC[C@H](Oc2nn3c(C4CCOCC4)ncc3c(=O)n2C)CC1`, the half-inhibitory concentration (IC50) in assay [12] was found to be 0.0075 µM; in assay [13], 0.086 µM. With `CCCn1c(=O)c2[nH]c(-c3cccc(C(C)C)c3)cc2n(-c2ccc3c(c2)CNC3C(=O)OC)c1=O` (stereo unspecified), in assay [16], the Ki turned out to be 0.00153 µM.

Take `O=c1c(/C=C/c2nc3cc(Cl)ccc3n2-c2ccccc2)coc2ccc(F)cc12`: the IC50 in [17] stood at 0.0095 µM.

Take `Cn1c(OC[C@H]2CC[C@H](C(F)(F)F)CC2)nn2c(C3CCOCC3)ncc2c1=O`: the IC50 was 0.0439 µM in [12] and 0.431 µM in assay [13]. The compound `CCc1cc(C#N)cc2c(NCc3ccc(OC)c(Cl)c3)c(COCCF)cnc12` came in with an IC50 in assay [3] of 0.0334 µM.
